# Structures can show the parent of a compound that is named as a salt. Where two headings read alike, the source gives them in different places.
# Target: T1, IKK2 (Homo sapiens, UniProt O14920)
# T1 construct: made in house; host or cells: insect cells (baculovirus, pFastBac; SF9)
# T1 sequence (O14920 1-756): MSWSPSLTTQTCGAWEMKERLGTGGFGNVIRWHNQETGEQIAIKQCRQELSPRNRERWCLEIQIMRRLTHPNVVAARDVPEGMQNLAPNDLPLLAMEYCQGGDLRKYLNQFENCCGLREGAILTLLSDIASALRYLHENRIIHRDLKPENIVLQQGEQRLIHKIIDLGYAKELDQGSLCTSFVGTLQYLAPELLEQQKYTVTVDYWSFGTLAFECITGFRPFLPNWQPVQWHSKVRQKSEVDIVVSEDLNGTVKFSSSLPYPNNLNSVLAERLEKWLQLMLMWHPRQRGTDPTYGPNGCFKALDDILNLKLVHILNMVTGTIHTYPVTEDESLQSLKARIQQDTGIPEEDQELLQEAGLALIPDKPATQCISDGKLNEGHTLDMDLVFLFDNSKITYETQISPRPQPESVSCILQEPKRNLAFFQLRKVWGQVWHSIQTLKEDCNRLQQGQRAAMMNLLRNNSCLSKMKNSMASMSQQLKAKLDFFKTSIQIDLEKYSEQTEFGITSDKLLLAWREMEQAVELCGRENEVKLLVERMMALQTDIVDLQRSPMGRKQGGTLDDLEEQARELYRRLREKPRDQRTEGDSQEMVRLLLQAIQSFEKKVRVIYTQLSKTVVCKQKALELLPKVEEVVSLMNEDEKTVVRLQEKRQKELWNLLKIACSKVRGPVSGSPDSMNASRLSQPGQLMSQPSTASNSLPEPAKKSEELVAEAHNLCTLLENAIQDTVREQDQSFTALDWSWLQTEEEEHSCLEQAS
# Test: IKKβ Resin Enzyme Assay (IKK2 resin)
# Assay type: biochemical
# Method in brief: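 Enzyme: human IKK2 with a C-terminal FLAG tag, baculovirus-expressed, purified as homodimer on anti-FLAG resin. It phosphorylates a biotinylated IκBα peptide with 1 μM ATP plus [γ-33P]ATP in 25 mM Hepes pH 7.6, Mg/Mn, for 30 min at 25° C. Incorporation is counted by scintillation after anion-exchange resin stop.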
# [1] = Table 4, read-out: IKK2 Resin IC50
# [2] = Table 18, read-out: IKK2 Resin IC50
# [3] = Table 14, read-out: IKK2 Resin IC50
# [4] = Table 2, read-out: IKK Resin IC50
# [5] = Table 3, read-out: IKK Resin IC50
compound,measurement,setting,value
"CN1CCN(c2ccc(Cl)c(C(=O)Nc3ccc4c(c3)-c3c(c(C(N)=O)nn3-c3ccc5c(c3)OCO5)CC4)n2)CC1 [Example 217, 1-(1,3-benzodioxol-5-yl)-8-({[3-chloro-6-(4-methylpiperazin-1-yl)pyridin-2-yl]carbonyl}amino)-4,5-dihydro-1H-benzo[g]indazole-3-carboxamide]",IC50,"Table 5, read-out: IKK2 Resin Avg. IC50",≤ 1 µM
"CSc1ccc(-n2nc(C(N)=O)c3c2-c2cc(NS(C)(=O)=O)ccc2CC3)cc1 [Example 411, 8-[(methylsulfonyl)amino]-1-[4-(methylthio)phenyl]-4,5-dihydro-1H-benzo[g]indazole-3-carboxamide]",IC50,"Table 19, read-out: IKK2 Resin IC50",≤ 1 µM
"CC1(C)OCC(COc2cccc(-n3nc(C(N)=O)c4c3-c3cc(NC(=O)c5ccncc5Cl)ccc3CC4)c2)O1 (stereo not drawn) [Example 275, 8-[(3-chloroisonicotinoyl)amino]-1-{3-[(2,2-dimethyl-1,3-dioxolan-4-yl)methoxy]phenyl}-4,5-dihydro-1H-benzo[g]indazole-3-carboxamide]",IC50,"Table 9, read-out: IKK2 Resin IC50",1 to 10 µM
"NC(=O)c1nn(-c2ccc3c(c2)OCO3)c2c1CCc1ccc(NC(=O)c3cc(Cl)ccc3Cl)cc1-2 [Example 189, 1-(1,3-benzodioxol-5-yl)-8-[(2,5-dichlorobenzoyl)amino]-4,5-dihydro-1H-benzo[g]indazole-3-carboxamide]",IC50,[1],≤ 1 µM
"CC(C)S(=O)(=O)c1ccc(-n2nc(C(N)=O)c3c2-c2cc(NC(=O)c4ccccc4Cl)ccc2CC3)cc1 [Example 393, 8-[(2-chlorobenzoyl)amino]-1-[4-(isopropylsulfonyl)phenyl]-4,5-dihydro-1H-benzo[g]indazole-3-carboxamide]",IC50,[2],≤ 1 µM
"NC(=O)c1nn(-c2ccccc2F)c2c1CCc1ccc(NC(=O)c3ccccc3Cl)cc1-2 [Example 341, 8-[(2-chlorobenzoyl)amino]-1-(2-fluorophenyl)-4,5-dihydro-1H-benzo[g]indazole-3-carboxamide]",IC50,[3],≤ 1 µM
"CS(=O)(=O)c1ccc(-n2nc(C(N)=O)c3c2-c2cc(NC(=O)c4cc(Cl)cnc4Cl)ccc2CC3)cc1 [Example 123, 8-{[(2,5-dichloropyridin-3-yl)carbonyl]amino}-1-[4-(methylsulfonyl)phenyl]-4,5-dihydro-1H-benzo[g]indazole-3-carboxamide]",IC50,[4],≤ 1 µM
Cc1ccc([N+](=O)[O-])c(C(=O)Nc2ccc3c(c2)-c2c(c(C(N)=O)nn2-c2ccc(S(C)(=O)=O)cc2)CC3)c1 [Example 153],IC50,[5],≤ 1 µM
"NC(=O)c1nn(-c2ccc(C#CCO)cc2)c2c1CCc1ccc(NC(=O)c3cccnc3Cl)cc1-2 [Example 386, 8-{[(2-chloropyridin-3-yl)carbonyl]amino}-1-[4-(3-hydroxyprop-1-ynyl)phenyl]-4,5-dihydro-1H-benzo[g]indazole-3-carboxamide]",IC50,"Table 17, read-out: IKK2 Resin IC50",≤ 1 µM
"CCCS(=O)(=O)c1ccc(-n2nc(C(N)=O)c3c2-c2cc(NC(=O)c4ccccc4Cl)ccc2CC3)cc1 [Example 400, 8-[(2-chlorobenzoyl)amino]-1-[4-(propylsulfonyl)phenyl]-4,5-dihydro-1H-benzo[g]indazole-3-carboxamide]",IC50,[2],≤ 1 µM
"CN(C)CCNC(=O)c1ccc(-n2nc(C(N)=O)c3c2-c2cc(NC(=O)c4ccccc4Cl)ccc2CC3)cc1 [Example 380, 8-[(2-chlorobenzoyl)amino]-1-[4-({[2-(dimethylamino)ethyl]amino}carbonyl)phenyl]-4,5-dihydro-1H-benzo[g]indazole-3-carboxamide hydrochloride]",IC50,"Table 15, read-out: IKK2 Resin IC50",1 to 10 µM
"NC(=O)c1nn(-c2ccc3c(c2)OCO3)c2c1CCc1ccc(NC(=O)c3cccc(Cl)c3Cl)cc1-2 [Example 194, 1-(1,3-benzodioxol-5-yl)-8-[(2,3-dichlorobenzoyl)amino]-4,5-dihydro-1H-benzo[g]indazole-3-carboxamide]",IC50,[1],≤ 1 µM
"Cc1ccc(-n2nc(C(N)=O)c3c2-c2cc(NC(=O)c4ccccc4Cl)ccc2CC3)cc1 [Example 335, 8-[(2-chlorobenzoyl)amino]-1-(4-methylphenyl)-4,5-dihydro-1H-benzo[g]indazole-3-carboxamide]",IC50,[3],≤ 1 µM
"CS(=O)(=O)c1ccc(-n2nc(C(N)=O)c3c2-c2cc(NC(=O)c4cc(Br)ccc4Cl)ccc2CC3)cc1 [Example 136, 8-[(5-bromo-2-chlorobenzoyl)amino]-1-[4-(methylsulfonyl)phenyl]-4,5-dihydro-1H-benzo[g]indazole-3-carboxamide]",IC50,[5],≤ 1 µM
"COc1ccc(C(=O)Nc2ccc3c(c2)-c2c(c(C(N)=O)nn2-c2ccc4c(c2)OCO4)CC3)c(Cl)c1OC [Example 175, 1-(1,3-benzodioxol-5-yl)-8-[(2-chloro-3,4-dimethoxybenzoyl)amino]-4,5-dihydro-1H-benzo[g]indazole-3-carboxamide]",IC50,[1],≤ 1 µM
"NC(=O)c1nn(-c2ccc(/C=C/n3ccnc3)cc2)c2c1CCc1ccc(NC(=O)c3ccccc3Cl)cc1-2 [Example 293, 8-[(2-chlorobenzoyl)amino]-1-{4-[(E)-2-(1H-imidazol-1-yl)ethenyl]phenyl}-4,5-dihydro-1H-benzo[g]indazole-3-carboxamide]",IC50,"Table 11, read-out: IKK2 Resin IC50",≤ 1 µM
"NC(=O)c1nn(-c2ccc3c(c2)OCO3)c2c1CCc1ccc(NC(=O)c3cc4c(cc3Cl)OCO4)cc1-2 [Example 168, 1-(1,3-benzodioxol-5-yl)-8-{[(6-chloro-1,3-benzodioxol-5-yl)carbonyl]amino}-4,5-dihydro-1H-benzo[g]indazole-3-carboxamide]",IC50,[1],≤ 1 µM
"CN(C)CCSc1ccc(Cl)c(C(=O)Nc2ccc3c(c2)-c2c(c(C(N)=O)nn2-c2ccc(F)cc2)CC3)n1 [Example 257, 8-{[(3-chloro-6-{[2-(dimethylamino)ethyl]thio}pyridin-2-yl)carbonyl]amino}-1-(4-fluorophenyl)-4,5-dihydro-1H-benzo[g]indazole-3-carboxamide]",IC50,"Table 7, read-out: IKK2 Resin IC50",≤ 1 µM
"NC(=O)c1nn(-c2ccc3c(c2)OCO3)c2c1CCc1ccc(NC(=O)c3cc([N+](=O)[O-])ccc3Cl)cc1-2 [Example 173, 1-(1,3-benzodioxol-5-yl)-8-[(2-chloro-5-nitrobenzoyl)amino]-4,5-dihydro-1H-benzo[g]indazole-3-carboxamide]",IC50,[1],≤ 1 µM
"CS(=O)(=O)c1ccc(-n2nc(C(N)=O)c3c2-c2cc(NC(=O)c4ccc(Cl)c(N)c4)ccc2CC3)cc1 [Example 113, 8-[(3-amino-4-chlorobenzoyl)amino]-1-[4-(methylsulfonyl)phenyl]-4,5-dihydro-1H-benzo[g]indazole-3-carboxamide]",IC50,[4],≤ 1 µM
"NC(=O)c1nn(-c2ccc3c(c2)OCO3)c2c1CCc1ccc(NC(=O)c3ccccc3Br)cc1-2 [Example 177, 1-(1,3-benzodioxol-5-yl)-8-[(2-bromobenzoyl)amino]-4,5-dihydro-1H-benzo[g]indazole-3-carboxamide]",IC50,[1],≤ 1 µM
"NC(=O)c1nn(-c2ccc(Br)cc2)c2c1CCc1ccc(NC(=O)c3ccccc3Cl)cc1-2 [Example 350, 1-(4-bromophenyl)-8-[(2-chlorobenzoyl)amino]-4,5-dihydro-1H-benzo[g]indazole-3-carboxamide]",IC50,[3],≤ 1 µM
"NC(=O)c1nn(-c2ccc(N)nc2)c2c1CCc1ccc(NC(=O)c3ccncc3Cl)cc1-2 [Example 381, 1-(6-aminopyridin-3-yl)-8-[(3-chloroisonicotinoyl)amino]-4,5-dihydro-1H-benzo[g]indazole-3-carboxamide]",IC50,"Table for Examples 381-385 (headed TABLE 14), read-out: IKK2 Resin IC50",≤ 1 µM
"CS(=O)(=O)c1ccc(-n2nc(C(N)=O)c3c2-c2cc(NC(=O)c4ccc(C(F)(F)F)cc4[N+](=O)[O-])ccc2CC3)cc1 [Example 152, 1-[4-(methylsulfonyl)phenyl]-8-{[2-nitro-4-(trifluoromethyl)benzoyl]amino}-4,5-dihydro-1H-benzo[g]indazole-3-carboxamide]",IC50,[5],≤ 1 µM
"NC(=O)c1nn(-c2ccc(F)cc2)c2c1CCc1ccc(NC(=O)c3cccc(N)c3Cl)cc1-2 [Example 229, 8-[(3-amino-2-chlorobenzoyl)amino]-1-(4-fluorophenyl)-4,5-dihydro-1H-benzo[g]indazole-3-carboxamide]",IC50,"Table 6, read-out: IKK2 Resin IC 50",≤ 1 µM
"CS(=O)(=O)c1ccc(-n2nc(C(N)=O)c3c2-c2cc(NC(=O)c4cccc(Cl)c4Cl)ccc2CC3)cc1 [Example 96, 8-[(2,3-dichlorobenzoyl)amino]-1-[4-(methylsulfonyl)phenyl]-4,5-dihydro-1H-benzo[g]indazole-3-carboxamide]",IC50,[4],≤ 1 µM
"NC(=O)c1nn(-c2ccc3c(c2)OCO3)c2c1CCc1ccc(NC(=O)c3ccc(O)nc3)cc1-2 [Example 186, 1-(1,3-benzodioxol-5-yl)-8-{[(6-hydroxypyridin-3-yl)carbonyl]amino}-4,5-dihydro-1H-benzo[g]indazole-3-carboxamide]",IC50,[1],≤ 1 µM

# — US7186743B2, “Substituted pyrazolyl compounds for the treatment of inflammation” (Pharmacia Corporation, priority 2001, dated 2007)
